Among the data in US8735411B2, “Macrocyclic benzofused pyrimidine derivatives” (AbbVie Inc., priority 2006, dated 2014) are MPE and Potency values, retold here.

In one experiment the test system is inflammatory pain. Kind of experiment: Analgesic effect against inflammatory pain: carrageenan-induced thermal hyperalgesia, hotbox assay. Conditions: 100 micromole/kg i.p., 90 min after carrageenan, tested 30 min after dosing. The class given is in vivo. How it is done:
To assess the effectiveness of representative compounds of the invention against acute model inflammatory pain, animals were tested in an acute model of carrageenan-induced thermal hyperalgesia (see for example, Honore, et al. Behavioural Brain Research 167 (2006) 355-364; Porreca, et al. Journal of Pharmacology and Experimental Therapeutics (2006) vol. 318 pp. 195-205). Carrageenan was injected into the test paw of the animal, and after 90 minutes, the test drug was administered by intraperitoneal dosing; the effect on thermal hyperalgesia was assessed in a hotbox assay which done 30 minutes after the intraperitoneal dosing of the test drug, and the MPE (maximal percent effect) reported by comparison to the control paw (not injected with carrageenan), according to 100 times the withdrawal latency of the carrageenan injected paw (in seconds) divided by the withdrawal latency of the control (not injected with carrageenan) paw.

For a further experiment, the system named is neuropathic pain. Put plainly: Analgesic effect against neuropathic pain: L5/L6 spinal nerve ligation (Chung model), von Frey mechanical allodynia. Format: in vivo, rat. The note with it: 100 micromole/kg i.p., 30 minutes before testing. Here is the method: Animals were prepared for testing, by use of a surgical procedure that induces neuropathic pain in one paw. Male Sprague Dawley rats were purchased from Charles River (Portage, Mich.). Prior to surgery, animals were housed in groups and maintained in a temperature-regulated environment. Following nerve ligation surgery, animals were housed in groups, and had access to food and water ad libitum.
The L5 and L6 spinal nerves of anesthetized rats were tightly ligated in a manner described previously (see Kim and Chung, Pain (1992) vol. 50 pp. 355-363). An incision was made on the dorsal portion of the hip and the muscle was blunt-dissected to reveal the spinal processes. The L6 transverse process was removed, and the left side L5 and L6 spinal nerves were tightly ligated with 5.0 braided silk suture. The wound was cleaned, the membrane sewn with 4.0 dissolvable Vicryl suture and the skin closed with wound clips. The paw affected by the surgical procedure (the left paw) develops an allodynic response, a hypersensitivity to mechanical and other stimuli; neuropathic pain is assessed as an increased sensitivity in the surgically affected (left) allodynic paw compared to the control paw on the right side, and measured by comparing the response of the (left side) allodynic paw to the response of the unaffected right side control paw.
For the assessment of neuropathic pain, mechanical allodynia in the affected paw of animals that had undergone spinal nerve ligation was evaluated using testing with von Frey filaments. As described previously by S. R. Chaplan, et al (“Quantitative assessment of tactile allodynia in the rat paw” J. Neurosci. Meth. (1994) vol. 53 pp. 55-63), two weeks following surgery rats were acclimated to a testing box constructed of plexiglass with a wire mesh floor which allowed access to the plantar surface of the animal's hindpaws. Using an Up-Down method (Dixon, Annu. Rev. Pharmacol. Toxicol. (1980) vol. 20, pp. 441-462; Chaplan et al. “Quantitative assessment of tactile allodynia in the rat paw” J. Neuroscience Methods (1994) vol. 53 pp. 55-63), von Frey filaments of increasing stiffness were applied to the plantar surface of the hindpaws and the withdrawal response of the animals was observed; for the surgically affected paw with neuropathic pain (the left side paw) the baseline level of allodynia has a withdrawal threshold of ≦4 g of pressure. […] The efficacy of the compound in reducing neuropathic pain at different doses is determined by comparing response in the surgery-affected paw versus the response in the control paw. This is expressed as the MPE (maximum percent effect), or 100 times the withdrawal threshold of the allodynic (left side) divided by the withdrawal threshold of the control (right side).

The target in the next experiment is histamine H4 receptor (Homo sapiens, UniProt Q9H3N8). Put plainly: In vitro histamine H4 potency in FLIPR (Ca2+ flux, HEK-293 cells coexpressing Gαqi5). Further details: expressed in transfected cells. Conditions: Kb for antagonists and inverse agonists, EC50 for partial agonists. The class given is cell-based. A digest of the protocol:
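Fluo-4-loaded cells read on FLIPR for intracellular Ca2+ rise after compound addition, with pre-addition fluorescence subtracted. Peak responses per concentration expressed as % of the full-agonist histamine response. Concentration–response fits give Kb for antagonists/inverse agonists and EC50 for partial agonists.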

Chain of histamine H4 receptor (Q9H3N8 whole entry): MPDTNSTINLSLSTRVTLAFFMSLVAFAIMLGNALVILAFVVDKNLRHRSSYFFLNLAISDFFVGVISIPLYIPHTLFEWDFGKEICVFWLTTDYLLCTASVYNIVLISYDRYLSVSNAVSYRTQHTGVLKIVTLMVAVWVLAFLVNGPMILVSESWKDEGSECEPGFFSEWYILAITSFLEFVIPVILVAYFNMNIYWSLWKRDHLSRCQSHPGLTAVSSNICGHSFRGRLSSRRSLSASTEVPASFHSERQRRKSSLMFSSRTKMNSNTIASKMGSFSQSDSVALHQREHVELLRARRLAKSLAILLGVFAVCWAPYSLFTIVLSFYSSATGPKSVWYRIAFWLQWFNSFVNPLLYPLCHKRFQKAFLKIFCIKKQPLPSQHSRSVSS

In the case of `Nc1nc2c(c(N3CC[C@@H](N)C3)n1)CCCc1ccccc1-2` [Example 16, 4-((3R)-3-Amino-pyrrolidin-1-yl)-6,7-dihydro-5H-benzo[6,7]cyclohepta[1,2-d]pyrimidin-2-ylamine], the MPE is 68% in the experiment on inflammatory pain and 47% in the experiment on neuropathic pain.
`Nc1nc2c(c(N3CC4CCCNC4C3)n1)SCCc1ccccc1-2` (centres unmarked) [Example 110, 4-(Octahydro-pyrrolo[3,4-b]pyridin-6-yl)-6,7-dihydro-5-thia-1,3-diaza-dibenzo[a,c]cyclohepten-2-ylamine] came in with a Potency on histamine H4 receptor of 54 nM.
The same measure, in the same setting: under `CN[C@@H]1CCN(c2nc(N)nc3c2S(=O)(=O)CCc2ccccc2-3)C1` [Example 111, 4-((R)-3-Methylamino-pyrrolidin-1-yl)-5,5-dioxo-6,7-dihydro-5H-5λ6-thia-1,3-diaza-dibenzo[a,c]cyclohepten-2-ylamine] stands 1413 nM.
The same measure, in the same setting: under `CN[C@@H]1CCN(c2nc(N)nc3c2[S+]([O-])CCc2ccccc2-3)C1` (stereo partly drawn) [Example 112, 4-((R)-3-Methylamino-pyrrolidin-1-yl)-5-oxo-6,7-dihydro-5-thia-1,3-diaza-dibenzo[a,c]cyclohepten-2-ylamine] stands 2455 nM.
At histamine H4 receptor, `Nc1nc(NCCCN2CCCCC2)c2c(n1)-c1ccccc1CCC2` [Example 113, N^4-(3-Piperidin-1-yl-propyl)-6,7-dihydro-5H-benzo[6,7]cyclohepta[1,2-d]pyrimidine-2,4-diamine] yielded a Potency of 4266 nM.
Same read-out and setting: then `Nc1nc2c(c(N3CC4CCCNC4C3)n1)CCCc1ccc(F)cc1-2` (centres unmarked) [Example 115, 10-fluoro-4-octahydro-6H-pyrrolo[3,4-b]pyridin-6-yl-6,7-dihydro-5H-benzo[6,7]cyclohepta[1,2-d]pyrimidin-2-amine], with 32 nM; and `Nc1nc2c(c(N3CCCNCC3)n1)CCCc1ccccc1-2` [Example 116, 4-[1,4]Diazepan-1-yl-6,7-dihydro-5H-benzo[6,7]cyclohepta[1,2-d]pyrimidin-2-ylamine], with 15 nM; and `Nc1nc2c(c(N3C[C@H]4CNC[C@H]43)n1)CCCc1ccccc1-2` [Example 117, (1R,5S)-4-(3,6-Diaza-bicyclo[3.2.0]hept-6-yl)-6,7-dihydro-5H-benzo[6,7]cyclohepta[1,2-d]pyrimidin-2-ylamine], with 12 nM.
On the same count and under the same terms, then `c1ccc2c(c1)CCCc1c-2ncnc1N1CCNCC1` [Example 118, 4-Piperazin-1-yl-6,7-dihydro-5H-benzo[6,7]cyclohepta[1,2-d]pyrimidine], with 138 nM.
Same read-out and setting: then `Nc1nc2c(c(N3CC[C@H]4CNC[C@H]43)n1)CCCc1ccccc1-2` [Example 119, (3aS,6aS)-4-(Hexahydro-pyrrolo[3,4-b]pyrrol-1-yl)-6,7-dihydro-5H-benzo[6,7]cyclohepta[1,2-d]pyrimidin-2-amine], with 269 nM.
`Nc1nc2c(c(N3C[C@@H]4CN[C@@H]4C3)n1)CCCc1ccccc1-2` [Example 120, (1S,5S)-4-(3,6-Diaza-bicyclo[3.2.0]hept-3-yl)-6,7-dihydro-5H-benzo[6,7]cyclohepta[1,2-d]pyrimidin-2-ylamine] displayed a Potency on histamine H4 receptor of 603 nM.
The compound `Nc1nc(NC2CCCNC2)c2c(n1)-c1ccccc1CCC2` (centres unmarked) [Example 121, N^4-piperidin-3-yl-6,7-dihydro-5H-benzo[6,7]cyclohepta[1,2-d]pyrimidine-2,4-diamine] returned a Potency on histamine H4 receptor of 407 nM.
Still for that read-out and setting: then `Nc1nc(NC2CCCC3CNCC32)c2c(n1)-c1ccccc1CCC2` (centres unmarked) [Example 122, N^4-(Octahydro-isoindol-4-yl)-6,7-dihydro-5H-benzo[6,7]cyclohepta[1,2-d]pyrimidine-2,4-diamine], with 1288 nM; and `CNc1nc2c(c(N3CCNCC3)n1)CCCc1ccccc1-2` [Example 123, Methyl-(4-piperazin-1-yl-6,7-dihydro-5H-benzo[6,7]cyclohepta[1,2-d]pyrimidin-2-yl)-amine], with 1622 nM; and `CN[C@@H]1CCN(c2ncnc3c2CCCc2ccccc2-3)C1` [Example 124, 4-(3-(R)-Methylamino-pyrrolidin-1-yl)-6,7-dihydro-5H-benzo[6,7]cyclohepta[1,2-d]pyrimidine], with 1413 nM.
Same read-out and setting: under `Cc1cc(C)c2c(c1)-c1nc(N)nc(N3CCNCC3)c1CCC2` [Example 126, 8,10-Dimethyl-4-piperazin-1-yl-6,7-dihydro-5H-benzo[6,7]cyclohepta[1,2-d]pyrimidin-2-ylamine] stands 2754 nM; under `c1ccc2c(c1)CCCc1c-2nc(NCCc2c[nH]cn2)nc1N1CC2CCCNC2C1` (centres unmarked) [Example 127, 6-(2-(1H-imidazol-4-yl)ethylamino-6,7-dihydro-5H-benzo[6,7]cyclohepta[1,2-d]pyrimidin-4-yl)octahydro-1H-pyrrolo[3,4-b]pyridine], 933 nM.
On the same count and under the same terms, then `COC(=O)N(C)c1ccc2c(c1)-c1nc(N)nc(N3CCNCC3)c1CCC2` [Example 128, (2-Amino-4-piperazin-1-yl-6,7-dihydro-5H-benzo[6,7]cyclohepta[1,2-d]pyrimidin-10-yl)-methyl-carbamic acid methyl ester], with 562 nM; and `CNc1ccc2c(c1)-c1nc(N)nc(N3CCNCC3)c1CCC2` [Example 129, 10-N-Methyl-4-piperazin-1-yl-6,7-dihydro-5H-benzo[6,7]cyclohepta[1,2-d]pyrimidine-2,10-diamine], with 1096 nM; and `COC(=O)N(C)c1ccc2c(c1)-c1nc(N)nc(N3CC4CCCNC4C3)c1CCC2` (centres unmarked) [Example 130, (2-Amino-4-octahydro-pyrrolo[3,4-b]pyridin-6-yl-6,7-dihydro-5H-benzo[6,7]cyclohepta[1,2-d]pyrimidin-10-yl)-methyl-carbamic acid methyl ester], with 164 nM.
With `CNc1ccc2c(c1)-c1nc(N)nc(N3C[C@H]4CCCN[C@H]4C3)c1CCC2` [Example 131, 10-N-methyl-4-[(4aR,7aR)-octahydro-6H-pyrrolo[3,4-b]pyridin-6-yl]-6,7-dihydro-5H-benzo[6,7]cyclohepta[1,2-d]pyrimidine-2,10-diamine], the Potency on histamine H4 receptor was determined as 113 nM.
Same read-out and setting: under `CC(=O)Nc1cccc2c1-c1nc(N)nc(N3CCNCC3)c1CCC2` [Example 132, N-(2-Amino-4-piperazin-1-yl-6,7-dihydro-H-benzo[6,7]cyclohepta[1,2-d]pyrimidin-11-yl)-acetamide] stands 1096 nM.
The same measure, in the same setting: then `COC(=O)c1nc2c(c(N3CC4CCCNC4C3)n1)CCCc1ccccc1-2` (centres unmarked) [Example 133, 4-(Octahydro-pyrrolo[3,4-b]pyridin-6-yl)-6,7-dihydro-5-benzo[6,7]cyclohepta[1,2-d]pyrimidine-2-carboxylic acid methyl ester], with 14454 nM; and `O=C(O)c1nc2c(c(N3CC4CCCNC4C3)n1)CCCc1ccccc1-2` (centres unmarked) [Example 134, 4-(Octahydro-pyrrolo[3,4-b]pyridin-6-yl)-6,7-dihydro-5H-benzo[6,7]cyclohepta[1,2-d]pyrimidine-2-carboxylic acid], with 11885 nM.
Still for that read-out and setting: under “[1-(6,7-Dihydro-5H-benzo[6,7]cyclohepta[1,2-d]pyrimidin-4-yl)-azetidin-3-yl]-amine [Example 125]” stands 631 nM.
